Source: KR20110060529A, “시클로헥산 디카르복실산 유도체를 함유하는 피부 외용제 조성물” ((주)아모레퍼시픽, priority 2009, dated 2011)

Legend:
Assay type in all cases: in vitro ADME, guinea pig
[1] = Test Example 3: skin absorption of arbutin (Franz permeation cell, HPLC)
[2] = Test Example 2: skin absorption of ascorbyl glucoside (Franz permeation cell, HPLC)
[3] = Test Example 4: skin absorption of vitamin A (retinoic acid) (Franz permeation cell, HPLC)

increase in skin absorption of arbutin [1]: 5~6 fold
increase in skin absorption of ascorbyl glucoside [2]: 5~6 fold
increase in skin absorption of retinoic acid [3]: 2~3 fold
Structure (SMILES): CCOCCOCCOC(=O)C1CCC(C(=O)OCCOCCOCC)CC1 (stereo not drawn) [시클로헥산 디카르복실산 유도체, Bis-Ethoxydiglycol Cyclohexane 1,4-Dicarboxylate]
